These results are taken from US7960339B2, “Antimicrobial peptides” (Österreichische Akademie der Wissenschaften, priority 2006, dated 2011).

In assay [1] the test system is LPS S. Minnesota Re595. As to the kind of experiment: Endpoint LAL activity (Limulus gel-clotting test), inhibition of lipid A-induced LAL enzymatic cascade. In kind it is biochemical. The note with it: sensibility 0.125 EU/ml, peptide:LPS 100:1 (w/w), minimum of 6 tests in triplicate. Here is the method: (§1) The principle of lipid A-induced pro-inflammatory cytokine activity leading to hemorrhagic dermonecrosis (classical Shwartzmann reaction) was tested in rabbit, an animal model very close to humans in terms of sensitivity to LPS activity, and was compared to the inhibition of the lipid A-induced LAL enzymatic cascade activation leading to clot. Thereby, New Zealand White rabbits were injected in the shaved dorsal region with S. minnesota Re595 lipid A alone or with peptide 1:100 (w/w) (5 μg in 0.2 ml saline buffer; route i.d.). […] Polymyxin B (PmB) was used as a control.

In assay [2] the test system is LPS Re595. As to the kind of experiment: Local Shwartzmann reaction in rabbit (lipid A-induced hemorrhagic dermonecrosis). In kind it is in vivo, New Zealand White rabbits. The note with it: i.d. injection in shaved dorsal region; open necrosis observed after 72-96 hours; minimum 3 injections in minimum 3 rabbits. As for the experimental part:
as §1

Assay [3] concerns C. neoformans ATCC 32045. In kind it is cell-based. Put shortly:
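Fungal inoculum was about 1×10^5 to 5×10^5 CFU/ml in 2×YM broth, added to peptides dispensed at 1 mg/ml to 1 μg/ml in twofold serial dilutions. After 72 hrs at 26° C, relative growth was read as OD620. IC50 values came from sigmoidal curve fitting.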

The subject of assay [4] is E. coli (strain 0:111). As to the kind of experiment: Antimicrobial assay with peptide immobilized on magnetic particles. In kind it is cell-based. To be noted: over night. As for the experimental part: Peptide P2-32 (500 μg) was covalently bound to the cyanuric chloride-activated magnetic particles (10 mg) (Chemicell, Product number 1314) using phosphate buffer saline pH=7.5. After mixing the suspension on a shaker for 2 hours at room temperature the blocking buffer (PBS pH=7.5 and 2% ethanolamine) were added and mixed the suspension on a shaker for 30 minutes at room temperatures. The particles were washed twice with PBS. Immobilized peptides were tested against E. coli (strain 0:111) grown in LB medium to the absorbance at 600 nm of 0.4 and diluted 2500 fold in LB medium. Different concentrations of magnetic particles immobilized with peptides were added and incubated over night.

Assay [5] concerns MonoMac6 cells. As to the kind of experiment: Release of TNFα from MonoMac6 cells stimulated by bacteria killed with antibiotics or peptides (ELISA). The note with it: E. coli strain 0:111 incubated over night with agent, then 15 hours on 10^5 MonoMac6 cells; FIG. 5. In kind it is cell-based. As for the experimental part:
Bacteria can be killed by different antibiotics, targeting different molecules essential for bacterial survival. When Gram-negative bacteria are killed, released LPS can stimulate production of cytokines, such as TNFα, or other inflammatory mediators. Comparison of well-established antimicrobial agents acting through different cellular targets with compounds of this invention were done in the following manner: bacteria (E. coli strain 0:111) were grown in LB medium to the absorbance at 600 nm of 0.4 and diluted 2500 fold in RPMI medium with added glucose. Different concentrations of antibiotics or peptides from this invention were added and incubated over night. 80 μl of cell suspension was added to the 100 μl containing 10^5 MonoMac6 cells and after 15 hours the release of TNFα to the medium was determined using ELISA test.

The mark [6] stands for this setting: 50% growth inhibition, OD620, 72 hrs at 26° C., 2×YM broth.
Setting [7] is: lowest concentration that resulted in 2% growth, OD620, 72 hrs at 26° C., 2×YM broth.

Where two headings read alike, the source gives them in different places. Square brackets hold non-standard residues; d marks the D form. Ends that are not written are not given here. Peptide text beside a SMILES is read from it. * marks the point of attachment. Dicyclohexylacetyl = O=C(C(C1CCCCC1)C1CCCCC1)*; Butanoyl(2,2-Me2) = CCC(C)(C)C(=O)*; Octanoyl(6-Me) = CCC(C)CCCCC(=O)*

As to `CC[C@H](C)[C@H](NC(=O)[C@H](CC(N)=O)NC(=O)[C@H](CCCNC(=N)N)NC(=O)[C@H](CCC(N)=O)NC(=O)[C@H](Cc1c[nH]c2ccccc12)NC(=O)[C@@H](N)Cc1ccccc1)C(=O)N[C@@H](CCCNC(=N)N)C(=O)N[C@@H](CCCCN)C(=O)N[C@@H](Cc1c[nH]c2ccccc12)C(=O)N[C@@H](CCCNC(=N)N)C(N)=O` [VS1-15, FWQRNIRKWR-NH2] (H-FWQRNIRKWR-NH2), the “Endpoint LAL activity peptide: LPS Re595 100:1 (w/w)” value (“Endpoint LAL activity peptide” below) in assay [1] is “NEGATIVE”. Moreover, the “Local Shwartzmann reaction in rabbit peptide: LPS Re595 100:1 (w/w)” value (shortened to “Local Shwartzmann reaction”) in assay [2] was “NEGATIVE”. For the same molecule, the “average IC50” value in assay [3] (setting [6]) turned out to be 5 µg/mL. Further, in assay [3] (setting [7]), the “average MIC” value came to 16 µg/mL.

With “FIWRWRWR-NH2 (also: bound to magnetic particles) [Peptide P2-32]”, the bacterial growth entry in assay [4] (0.25 mg immobilized magnetic particles, 100 μl diluted E. coli in LB) is recorded as “not-inhibited”; in assay [4] (0.5 mg immobilized magnetic particles, 100 μl diluted E. coli in LB) it was “not-inhibited”; in assay [4] (1 mg immobilized magnetic particles, 100 μl diluted E. coli in LB) it was “inhibited”; in assay [4] (2.5 mg immobilized magnetic particles, 100 μl diluted E. coli in LB) it was “inhibited”; in assay [4] (5 mg immobilized magnetic particles, 100 μl diluted E. coli in LB), “inhibited”; in assay [4] (50, 25 and 10 mg/ml concentrations of immobilized magnetic particles) it was “prevented bacterial growth”.

Turning to RFWQRNIRIRR-NH2 [Peptide P2-18], the “Endpoint LAL activity peptide” value in assay [1] was “NEGATIVE”. Further, the “Local Shwartzmann reaction” value in assay [2] is listed as “NEGATIVE”.

Take `CC[C@H](C)[C@H](NC(=O)[C@H](CCCNC(=N)N)NC(=O)[C@@H](NC(=O)[C@H](CCCNC(=N)N)NC(=O)[C@H](Cc1c[nH]c2ccccc12)NC(=O)[C@H](Cc1ccccc1)NC(=O)[C@@H]1CCCN1C(=O)C(C)(C)CC)[C@@H](C)CC)C(=O)N[C@@H](CCCNC(=N)N)C(=O)N[C@@H](CCCNC(=N)N)C(N)=O` [VS1-52, 2,2-dimethylbutanoyl PFWRIRIRR-NH2] ({Butanoyl(2,2-Me2)}-PFWRIRIRR-NH2): in assay [1], the “Endpoint LAL activity peptide” value is “NEGATIVE”. In assay [2], the “Local Shwartzmann reaction” value is on record as “NEGATIVE”. Further, in assay [3] (setting [6]), the “average IC50” value worked out at 2 µg/mL. Also, in assay [3] (setting [7]), the “average MIC” value was found to be 4 µg/mL.

For KRWSWKK-NH2 [Peptide P1-63], the “Endpoint LAL activity peptide” value in assay [1] is recorded as “NEGATIVE”. In assay [2], the “Local Shwartzmann reaction” value was “NEGATIVE”.

Take penicilin: the “release of TNFα / stimulation of the monocytes” value in assay [5] was “high stimulation of the monocytes”.

Turning to `CC[C@H](C)[C@@H]1NC(=O)[C@H](CCCNC(=N)N)NC(=O)[C@H]([C@@H](C)CC)NC(=O)[C@H](CCCNC(=N)N)NC(=O)[C@H](Cc2c[nH]c3ccccc23)NC(=O)[C@H](Cc2ccccc2)NC(=O)[C@H](CCCNC(=N)N)NC(=O)[C@H](CCCNC(=N)N)NC1=O` [VF50, cyclo FWRIRIRR-NH2] (cyclo(FWRIRIRR)), the “Endpoint LAL activity peptide” value in assay [1] was “NEGATIVE”. For the same molecule, the “Local Shwartzmann reaction” value in assay [2] is recorded as “NEGATIVE”.

Turning to “FwRNIRIRR-NH2 (F[dW]RNIRIRR-NH2; N-terminus assumed; SMILES CC[C@H](C)[C@H](NC(=O)[C@H](CCCNC(=N)N)NC(=O)[C@@H](NC(=O)[C@H](CC(N)=O)NC(=O)[C@H](CCCNC(=N)N)NC(=O)[C@@H](Cc1c[nH]c2ccccc12)NC(=O)[C@@H](N)Cc1ccccc1)[C@@H](C)CC)C(=O)N[C@@H](CCCNC(=N)N)C(=O)N[C@@H](CCCNC(=N)N)C(N)=O) [Peptide P2-11]”, in assay [1], the “Endpoint LAL activity peptide” value was “NEGATIVE”. In assay [2], the “Local Shwartzmann reaction” value is listed as “NEGATIVE”.

Consider `CC[C@H](C)[C@H](NC(=O)[C@H](CCCNC(=N)N)NC(=O)[C@H](CCCNC(=N)N)NC(=O)[C@H](CCC(N)=O)NC(=O)[C@H](Cc1c[nH]c2ccccc12)NC(=O)[C@@H](N)Cc1ccccc1)C(=O)N[C@@H](CCCNC(=N)N)C(=O)N[C@@H](CCCNC(=N)N)C(=O)N[C@@H](Cc1c[nH]c2ccccc12)C(=O)N[C@@H](CCCNC(=N)N)C(=O)N[C@@H](CCCNC(=N)N)C(N)=O` [VS1-18, FWQRRIRRWRR-NH2] (H-FWQRRIRRWRR-NH2; N-terminus assumed), for which, in assay [1], the “Endpoint LAL activity peptide” value is given as “NEGATIVE”. The “Local Shwartzmann reaction” value in assay [2] is listed as “NEGATIVE”. The “average IC50” value in assay [3] (setting [6]) turned out to be 7 µg/mL. In addition, the “average MIC” value in assay [3] (setting [7]) came to 32 µg/mL.

Take `CCC(C)CCCCC(=O)N1CCC[C@H]1C(=O)N[C@@H](Cc1ccccc1)C(=O)N[C@@H](Cc1c[nH]c2ccccc12)C(=O)N[C@@H](CCCNC(=N)N)C(=O)N[C@H](C(=O)N[C@@H](CCCNC(=N)N)C(=O)N[C@H](C(=O)N[C@@H](CCCNC(=N)N)C(=O)N[C@@H](CCCNC(=N)N)C(N)=O)[C@@H](C)CC)[C@@H](C)CC` (some centres unmarked) [VS1-53, 6-methyloctanoyl PFWRIRIRR-NH2] ({Octanoyl(6-Me)}-PFWRIRIRR-NH2): in assay [3] (ATCC 32045, 72 h), the “average IC50” value stood at 6 µg/mL and the “average MIC” value stood at 16 µg/mL. The “release of TNFα / stimulation of the monocytes” value in assay [5] is given as “significantly inhibited the release of TNFα”.

In the case of `O=C(N[C@H](CO)[C@H](O)c1ccc([N+](=O)[O-])cc1)C(Cl)Cl` [chloramphenicol], the “release of TNFα / stimulation of the monocytes” value in assay [5] is “high stimulation of the monocytes”.

On to FWQRNIRKVRRRI-NH2 [Peptide P1-12], for which the “Endpoint LAL activity peptide” value in assay [1] is reported as “NEGATIVE”. Also, the “Local Shwartzmann reaction” value in assay [2] was “NEGATIVE”.

Turning to RWQRNIRIRR-NH2 [Peptide P2-19], the “Endpoint LAL activity peptide” value in assay [1] is on record as “NEGATIVE”. The “Local Shwartzmann reaction” value in assay [2] was “NEGATIVE”.

On to `CC[C@H](C)[C@H](NC(=O)[C@H](CC(N)=O)NC(=O)[C@H](CCCNC(=N)N)NC(=O)[C@H](CCC(N)=O)NC(=O)[C@H](Cc1c[nH]c2ccccc12)NC(=O)[C@H](Cc1ccccc1)NC(=O)C(C)(C)CC)C(=O)N[C@@H](CCCNC(=N)N)C(=O)N[C@@H](CCCCN)C(=O)N[C@@H](Cc1c[nH]c2ccccc12)C(=O)N[C@@H](CCCNC(=N)N)C(N)=O` [VS1-42, 2,2-dimethylbutanoyl FWQRNIRKWR-NH2] ({Butanoyl(2,2-Me2)}-FWQRNIRKWR-NH2), for which the “Endpoint LAL activity peptide” value in assay [1] is “NEGATIVE”. Also, in assay [2], the “Local Shwartzmann reaction” value is recorded as “NEGATIVE”. Moreover, in assay [3] (setting [6]), the “average IC50” value came out at 6 µg/mL. Moreover, the “average MIC” value in assay [3] (setting [7]) was 16 µg/mL.

As for `CC[C@H](C)[C@H](NC(=O)[C@H](CC(N)=O)NC(=O)[C@H](CCCNC(=N)N)NC(=O)[C@H](CCC(N)=O)NC(=O)[C@H](Cc1c[nH]c2ccccc12)NC(=O)[C@H](Cc1ccccc1)NC(=O)C(C1CCCCC1)C1CCCCC1)C(=O)N[C@@H](CCCNC(=N)N)C(=O)N[C@@H](CCCCN)C(=O)N[C@@H](Cc1c[nH]c2ccccc12)C(=O)N[C@@H](CCCNC(=N)N)C(N)=O` [VS1-44, dicyclohexylacetyl FWQRNIRKWR-NH2] (Dicyclohexylacetyl-FWQRNIRKWR-NH2), in assay [3] (ATCC 32045, 72 h), the “average IC50” value was 4 µg/mL and the “average MIC” value was 16 µg/mL.

For `CC[C@H](C)[C@H](NC(=O)[C@H](CCCNC(=N)N)NC(=O)[C@H](Cc1c[nH]c2ccccc12)NC(=O)[C@@H](N)Cc1ccccc1)C(=O)N[C@@H](CCCNC(=N)N)C(=O)N[C@@H](CCCCN)C(=O)N[C@@H](Cc1c[nH]c2ccccc12)C(=O)N[C@@H](CCCNC(=N)N)C(N)=O` [VS1-21, FWRIRKWR-NH2] (H-FWRIRKWR-NH2; N-terminus assumed), in assay [3] (ATCC 32045, 72 h), the “average IC50” value was determined as 4 µg/mL and the “average MIC” value turned out to be 16 µg/mL.

As for `CC[C@H](C)[C@H](NC(=O)[C@H](CCCNC(=N)N)NC(=O)[C@@H](NC(=O)[C@H](CCCNC(=N)N)NC(=O)[C@H](Cc1c[nH]c2ccccc12)NC(=O)[C@H](Cc1ccccc1)NC(=O)C(C1CCCCC1)C1CCCCC1)[C@@H](C)CC)C(=O)N[C@@H](CCCNC(=N)N)C(=O)N[C@@H](CCCNC(=N)N)C(N)=O` [VS1-59, dicyclohexylacetyl FWRIRIRR-NH2] (Dicyclohexylacetyl-FWRIRIRR-NH2), in assay [3] (ATCC 32045, 72 h), the “average IC50” value was found to be 14 µg/mL and the “average MIC” value came to 62 µg/mL.

For FWQRNYRKVR-NH2 [Peptide P1-39], the “Endpoint LAL activity peptide” value in assay [1] is “NEGATIVE”. Besides, in assay [2], the “Local Shwartzmann reaction” value is recorded as “NEGATIVE”.
